From publication PMC2679375 (Journal of medicinal chemistry, 2008)

Key:
in vivo = conditions: rat, po
Aqueous solubility = type: physicochemical
[1] = tested on: MDA-MB-231 cancer cell line; conditions: within 24-hour treatment
cIAP-2 = cIAP-2 (Homo sapiens, UniProt Q13489); experiment: FP-based competitive binding assay for cIAP-2; conditions: relative to compound 2
XIAP BIR3 = XIAP BIR3 (Homo sapiens, UniProt P98170); experiment: Competitive fluorescence polarization-based XIAP binding assay; conditions: relative to compound 2
Sequence of XIAP BIR3 (P98170 241-356 limits assumed): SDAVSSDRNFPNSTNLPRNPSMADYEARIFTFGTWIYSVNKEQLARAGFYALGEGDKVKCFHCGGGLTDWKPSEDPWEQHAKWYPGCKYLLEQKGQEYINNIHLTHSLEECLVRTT

Sequence of cIAP-2 (Q13489 whole entry): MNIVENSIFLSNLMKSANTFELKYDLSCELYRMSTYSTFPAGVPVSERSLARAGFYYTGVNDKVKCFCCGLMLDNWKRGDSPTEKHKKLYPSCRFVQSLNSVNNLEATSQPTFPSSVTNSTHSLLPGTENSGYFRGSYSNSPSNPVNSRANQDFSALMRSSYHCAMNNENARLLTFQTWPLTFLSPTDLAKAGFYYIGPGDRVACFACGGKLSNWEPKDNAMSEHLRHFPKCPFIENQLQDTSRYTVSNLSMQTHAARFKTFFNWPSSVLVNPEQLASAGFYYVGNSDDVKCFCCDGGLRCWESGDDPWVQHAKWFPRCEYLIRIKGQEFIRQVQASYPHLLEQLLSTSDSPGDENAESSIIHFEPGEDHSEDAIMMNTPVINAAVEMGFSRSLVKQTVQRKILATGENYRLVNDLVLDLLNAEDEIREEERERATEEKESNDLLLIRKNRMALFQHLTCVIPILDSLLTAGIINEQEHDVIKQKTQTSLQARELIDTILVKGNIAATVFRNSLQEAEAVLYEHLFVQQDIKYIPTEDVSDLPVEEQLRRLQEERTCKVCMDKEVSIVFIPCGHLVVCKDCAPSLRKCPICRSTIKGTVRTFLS

Compound | times weaker than 2 in binding to cIAP-2 (cIAP-2) | times weaker than compound 2 in binding to XIAP BIR3 (XIAP BIR3) | also measured
CN[C@@H](C)C(=O)N[C@H]1CCCC[C@H]2CC[C@@H](C(=O)NC(c3ccccc3)c3ccccc3)N2C1=O [Compound 1] |  |  | AUC(0-inf) (in vivo; 25 mg/kg): 482 ± 92 ng·h/mL
CN[C@@H](C)C(=O)N[C@H]1CN(C(=O)Cc2ccccc2)CC[C@H]2CC[C@@H](C(=O)NC(c3ccccc3)c3ccccc3)N2C1=O [Compound 6, (5S,8S,10aR)-N-Benzhydryl-5-((S)-2-(methyl-amino)propanamido)-6-oxo-3-(2-phenyl-acetyl)decahydro pyrrolo[1,2-a][1,5]diazo-cine-8-carboxamide] |  |  | aqueous solubility (in words) (Aqueous solubility): excellent aqueous solubility; concentration that effectively induces apoptosis [1]: 100 nM; AUC(0-inf) (in vivo; 30 mg/kg): 1980 ± 614 ng·h/mL
CN[C@@H](C)C(=O)N[C@H]1CN(Cc2ccccc2)CC[C@H]2CC[C@@H](C(=O)NC(c3ccccc3)c3ccccc3)N2C1=O [Compound 4, (5S,8S,10aR)-N-benzhydryl-3-benzyl-5-((S)-2-(methylamino)propanamido)-6-oxodeca-hydropyrrolo[1,2-a][1,5]diazocine-8-carbox-amide] | 2-3 times | 4-17 times | 
CN[C@@H](C)C(=O)N[C@H]1CN(C)CC[C@H]2CC[C@@H](C(=O)NC(c3ccccc3)c3ccccc3)N2C1=O [Compound 3, (5S,8S,10aR)-N-benzhydryl-3-methyl-5-((S)-2-(methylamino)propanamido)-6-oxodeca-hydro pyrrolo[1,2-a][1,5]diazocine-8-carbox-amide] | 2-3 times | 4-17 times | 
